# Measurements as given in PubChem BioAssay AID1996.
# Conditions: buffer; pH 7.4; 200.0 µM
row,SMILES,solubility kinetic [µg/mL]
1,Cc1ccccc1NC(=S)N(Cc1cccs1)C1CCCC1,13.3
2,CC(OC(=O)CCCc1nc2ccccc2s1)C(=O)NC(N)=O (stereo not drawn),> 50.3
3,CCC(=O)c1cn(CC(=O)Nc2ccc(OC)cc2)c2ccccc12,< 0.4
4,CN(CC(=O)Nc1ccc(F)cc1)C(=O)c1ccncc1,> 43.1
5,CC(C)C(=O)OCC(=O)NCc1ccccc1Cl,37.6
6,O=C1c2ccccc2CN1C(CO)Cc1ccccc1 (stereo not drawn),> 40.1
7,Cl.NC(c1ccccc1)c1ccncc1 (stereo not drawn),> 38.6
8,COc1ccc(-c2nnc(SCC(=O)N(C)C3CCS(=O)(=O)C3)n2C(C)C)cc1 (stereo not drawn),> 65.8
9,Cc1ccccc1N1CCN(Cc2ccc3c(c2)OCO3)CC1,21.5
10,CCc1nc(SCC(=O)NC2CC2)c2c(C)c(C)sc2n1,2.5
11,O=C(c1ccncc1)c1ccc(NC(=O)c2cccs2)cc1,45.9
12,O=C(NCC1CCCO1)c1ccc([N+](=O)[O-])o1 (stereo not drawn),> 36
13,Clc1ccccc1C1CC(c2ccccc2)=Nc2ccccc2N1 (stereo not drawn),1.2
14,Cc1cc2c(Nc3cccc(O)c3)ncnc2s1.Cl,41.7
15,O=C(NCCc1ccc(F)cc1)c1cc2ccccc2oc1=O,< 0.7
16,Cc1ccc(NC(=O)NCC(c2ccccc2)N(C)C)cc1 (stereo not drawn),> 44.6
17,COc1cccc(NCCC(=O)c2cccc([N+](=O)[O-])c2)c1,12.4
18,COc1ccc(C)cc1Nc1nc(-c2ccccc2O)nc2ccccc12,< 0.3
19,COc1ccc(CC(=O)OCC(=O)Nc2ccc(Cl)cc2C)cc1,9
20,CCCCCCCCNC1=CC(=O)CC(C)(C)C1,12.5
21,Cc1ccc(CCC(=O)Nc2ccc(Br)cc2)o1,4.2
22,COC(/C(=N/O)c1ccc(Cl)cc1)c1ccccc1 (stereo not drawn),35.8

row,SMILES,solubility kinetic [µg/mL]
1,Cc1cccc(CC(=O)Nc2ccon2)c1,> 32.4
2,COc1ccc(C(OC(=O)c2ccco2)C(=O)NC(C)(C)C)cc1 (stereo not drawn),> 49.7
3,CN1CC(C(=O)c2cccs2)C(c2ccc(Cl)cc2)C1 (stereo not drawn),> 45.9
4,CC(CNC(=O)c1ccco1)NC(=O)c1ccco1 (stereo not drawn),38.8
5,O=C(COC(=O)c1ccccc1OCc1ccccc1Cl)NC1CCS(=O)(=O)C1 (stereo not drawn),> 65.7
6,COc1ccc(N2C(=O)CC(c3ccccc3)C2=O)cc1 (stereo not drawn),11.2
7,O=C(CCc1ccc(S(=O)(=O)N2CCOCC2)cc1)Nc1ccc(F)c(F)c1F,44.6
8,Cc1cc(CNC(=O)Cc2ccc(F)cc2)c2ccccc2n1,> 46.3
9,Cc1cc(NC(=O)CSc2nncn2-c2ccccc2)no1,> 47.3
10,CCSc1ncc(Cl)c(C(=O)Nc2cc(C)ccc2C)n1,< 0.2
11,O=C(c1ccc([N+](=O)[O-])cc1)N1C=CC(C(F)(F)F)=NCC1,> 47
12,CCCCCn1c(=O)c(C(=O)Nc2ccccc2N)c(O)c2ccccc21,< 0.3
13,Cc1ccc(NC(=O)CCCn2c(=O)oc3ccccc32)c(O)c1,12.6
14,Cc1cc(NC(=O)COc2ccc(C)c(C)c2)no1,0.7
15,COc1ccc(CN2C(=O)CCCc3ccccc32)cc1,> 42.2
16,CCc1ccccc1NC(=O)COC(=O)c1c(C)nsc1NC,1.9
17,Cc1onc(-c2ccccc2)c1-c1nc2cc(Cl)ccc2c(=O)o1,3.7
18,CN1CCCN(Cc2cccc3ccccc23)CC1,24.7
19,Cc1cc2nc(/C(C#N)=C/c3ccncc3)[nH]c2cc1C,1.7
20,COc1ccc(C(=O)NC2CCSc3ccccc32)cc1F (stereo not drawn),2.9
21,CN1CCN(C(=S)NC(=O)c2ccccc2Cl)CC1,> 44.7
22,O=C1Nc2cccnc2N(C(=O)CCl)c2ccccc21,> 43.2

row,SMILES,solubility kinetic [µg/mL]
1,O=C(NCC1CCCO1)c1cccc2ccccc12 (stereo not drawn),> 38.3
2,CCOC(=O)CSc1nc(COc2ccccc2)nc2ccccc12,0.6
3,CC(Oc1ccc(C#N)cc1)C(=O)c1ccc(F)c(F)c1 (stereo not drawn),32.6
4,O=S(=O)(NC1CCCCC1)c1ccc(N2CCOCC2)nc1,> 48.8
5,CN(C)/C=N/c1ncc(C(=O)c2ccc(Cl)cc2Cl)s1,41.6
6,O=C(CCSCc1ccccc1F)NCc1ccc(F)cc1,32.8
7,Cc1ccc(NC(=O)Cn2nc(C)c(S(=O)(=O)N(C)C)c2C)cc1,> 52.6
8,O=C(OCc1c(F)cccc1Cl)c1cnc(Cl)c(Cl)c1,< 0.7
9,Oc1ccc(C=NC2CCCCC2)cc1,16.6
10,CC(C)c1ccc(C(C)NC(=S)NC2CCCCC2)cc1 (stereo not drawn),1.9
11,c1ccc(CCNCC2COc3ccccc3O2)cc1 (stereo not drawn),> 40.4
12,CC(=O)OCC(=O)Nc1ccccc1C,> 31.1
13,COc1ccc(C(=O)OCC(=O)NC2CCCCCCC2)cc1OC,29
14,COc1cc(C)ccc1OCC(=O)OCC(=O)c1ccc[nH]1,> 45.5
15,Cc1ccc(N=Cc2c(O)c3ccccc3n(C)c2=O)cc1,3.3
16,CCC(=NCc1cccnc1)c1c(O)n(-c2ccc(C)cc2)c(=O)[nH]c1=O,31.6
17,CN(Cc1ccc(F)cc1)C(=O)c1sccc1-c1ccccc1,21.4
18,COc1ccccc1NS(=O)(=O)c1cn(C)cn1,> 40.1
19,CCC1CC(C(=O)Nc2ccccc2)C(=O)O1 (stereo not drawn),> 35
20,O=C(NCCCNC(=O)c1ccccc1F)c1ccco1,43.4
21,COc1ccc(NC(=O)Nc2nc3ccccc3s2)cc1,< 0.2
22,Cc1ccc(F)cc1NC(=O)CCc1c(C)[nH]c(=O)c(C#N)c1C,> 49.1

row,SMILES,solubility kinetic [µg/mL]
1,Nc1nc2ccccc2[nH]1,> 20
2,O=C(c1cccc2nc3ccccc3nc12)N1CCOCC1,40.9
3,CCN(C(=O)Cc1c(C(=O)O)n(CC)c2ccccc12)c1ccccc1C,42.7
4,COc1ccccc1C(=O)COC(=O)c1cnc(C)cn1,> 42.9
5,O=C(c1ccc(Cl)s1)N1CCN(c2ncccn2)CC1,> 46.3
6,CCCCC(=O)Nc1cnc(NC(=O)c2ccco2)cc1C,> 45.2
7,CN1C(=O)c2ccc(C(=O)Nc3ccccc3O)cc2C1=O,13.1
8,COc1ccc(NC(=O)c2ccc(S(=O)(=O)N3CCOCC3)o2)cc1,10.7
9,O=C(c1ccc([N+](=O)[O-])cc1)N1CCN(c2cccc3[nH]ccc23)CC1,50.7
10,Cc1ccc(CNC(=O)CN2C(C)CCCC2C)cc1 (stereo not drawn),28.9
11,N#Cc1ccsc1NC(=O)CCN1C(=O)C2CCCCC2C1=O (stereo not drawn),> 49.7
12,Cc1ccc(OCC(=O)Nc2ccncc2)c(C)c1,32.1
13,O=C(NCCNC(=O)c1ccc(Cl)cc1Cl)c1ccco1,30.7
14,CC1(C)C2CCC1(CS(=O)(=O)NC1CCCC1)C(=O)C2 (stereo not drawn),> 44.9
15,COCc1[nH]c(=S)[nH]c(=O)c1C,> 27.9
16,Cc1c(NC(=O)C(C)OC(=O)c2ccccc2O)c(=O)n(-c2ccccc2)n1C (stereo not drawn),> 59.3
17,COc1ccc(NC(=O)c2ccc3nc(C)sc3c2)cc1,15.4
18,CC(=O)Nc1ccc(OCC(=O)NC(C)c2ccc(F)cc2)cc1 (stereo not drawn),> 49.6
19,O=C(CCNC(=O)c1ccccc1)NC1CCCc2ccccc21 (stereo not drawn),43.4
20,Clc1ccc(NCc2cccnc2)c(Cl)c1,29.1
21,CCSc1ncc(Cl)c(C(=O)Nc2ccccc2Cl)n1,< 0.2
22,O=c1oc2c(O)cccc2cc1-c1nc2ccccc2[nH]1,1.1
